Results on three compounds are retold here after US5308867A, “Platelet activating factor antagonists, named "the phomactins", their preparation and use” (Sankyo Company, Limited, priority 1988, dated 1994).

Structures are written as SMILES. pIC50: −log10 of the molar value.

One series in a line: Solubility. The series is classed as physicochemical. The note with it: for Solubility in organic solvents: methanol, ethanol, acetone, ethyl acetate, chloroform, dimethyl sulfoxide, benzene and diethyl ether.
The subject of another series is platelet aggregation. In words: Antiplatelet aggregation test in rabbit platelet-rich plasma, synthetic C16:0 PAF-induced (method of Born et al.). The series is classed as cell-based. The note with it: platelet count 6×10^5 /μl, C16:0 PAF final 1×10^-8 -3×10^-8 M; for pIC50: Oryctolagus cuniculus, read-out: IC50 (concentration necessary to inhibit aggregation by 50%). As for the experimental part:
The following antiplatelet aggregation test was performed, using the phomactin A thus obtained.
Blood was drawn from a rabbit heart and immediately mixed with nine times its volume of a 3.8% w/v aqueous solution of sodium citrate. A platelet-rich plasma (PRP) was then obtained as a supernatant by centrifugation of the blood mixture at 150×g for 15 minutes at room temperature. The precipitated fraction remaining from the blood mixture was then centrifuged for a further 15 minutes at 10,000×g to obtain a platelet-poor plasma (PPP) as a supernatant. Appropriate proportions of the PRP and the PPP were mixed to obtain a plasma having a platelet count of 6×10^5 /μl.
Platelet aggregation was determined by the method of Born et al. [Nature, 194, 927-929 (1962)] where an increase in light transmission through the test sample is measured by means of an aggregometer.
The aggregation resulting from the addition of the PAF alone, without the prior addition of the test compound, was taken as 100%.
Instead of the test solution, physiological saline was added and the aggregation at one minutes after the addition of C16 -PAF was used as the control.

The subject of series [1] is arrhythmias evoked by ligation of left anterior descending coronary artery. The settings on record: cited from earlier work.
The subject of series [2] is infarct size after coronary artery ligation. The note with it: 5 mg kg^-1 i.v. immediately before occlusion, after 24 h of occlusion, rats, cited from earlier work.

For the compound `CC1=CCCC2(C)OC3CC(C)C(C)(CC1)C1=C3C(O)(OC1)C2O` (stereo not drawn) [Phomactin A, 3,3a-dihydroxy-2,6-(3'-methyl-3'-hexeno)-2,6,7-trimethyl-3a,5,6,7,8,8a-hexanhydrofuro[2,3,4-de]chroman], in the series “Solubility”, the “Solubility in organic solvents” value was “Soluble in methanol, ethanol, acetone, ethyl acetate, chloroform, dimethyl sulfoxide, benzene and diethyl ether”; the Solubility in water entry is “insoluble in water”. Moreover, the pIC50 with platelet aggregation is 4.77. Besides, the “inhibition of platelet aggregation” value with platelet aggregation (at a concentration of 10 g/ml (so in the source)) was “about 91.7%”.
On to `CC1C(=O)OC2C(O)C34C5CC(C(C)(C)C)C36C(OC(=O)C6O)OC4(C(=O)O5)C12O` (stereo not drawn) [BN-52021], for which the “number of ectopic beats during the 30 min ischemic period (in words)” value in series [1] (5 mg kg^-1, 15 min before coronary artery occlusion, mongrel dogs) is given as “significantly reduced the number of ectopic beats”. In series [1] (5 mg kg^-1 i.v. bolus 15 min before ligation, 5-10 min, dogs, p < 0.05 (Wilcoxon)), the “Number of ectopic beats, 5-10 min of ischemia, mean ± SEM” value is 10 ± 5.4. In addition, in series [1] (5 mg kg^-1 i.v. bolus 15 min before ligation, 10-15 min, dogs, p < 0.05 (Wilcoxon)), the “Number of ectopic beats, 10-15 min of ischemia, mean ± SEM” value is 10 ± 5.3. Further, in series [1] (5 mg kg^-1 i.v. bolus 15 min before ligation, 15-20 min, dogs, p < 0.05 (Wilcoxon)), the “Number of ectopic beats, 15-20 min of ischemia, mean ± SEM” value was 15 ± 6.3. Further, the “Number of ectopic beats, 20-25 min of ischemia, mean ± SEM” value in series [1] (5 mg kg^-1 i.v. bolus 15 min before ligation, 20-25 min, dogs, p < 0.05 (Wilcoxon)) was 55 ± 28.6. Further, in series [1] (5 mg kg^-1 i.v. bolus 15 min before ligation, 25-30 min, dogs, p < 0.05 (Wilcoxon)), the “Number of ectopic beats, 25-30 min of ischemia, mean ± SEM” value is 98 ± 39.0. In addition, the infarct size in series [2] (control 26±2.2%, p<0.05) is reported as 17±1.8 % of heart tissue. In addition, the “infarct size (in words)” value in series [2] (preliminary studies) is on record as “significantly reduced the infarct size”.
As to `CC1=CCCC2(C)OC2C(=O)C2=CC(O)C(C)C(C)(CC1)C2(C)O` (stereo not drawn) [Phomactin B, 13,15-dihydroxy-3,4-epoxy-2-oxo-4,8,11,12,15-pentamethylbicycl[9.3.1]pentadeca-7,14-diene], in the series “Solubility”, the “Solubility in organic solvents” value is “Soluble in methanol, ethanol, acetone, ethyl acetate, chloroform, dimethyl sulfoxide, benzene and diethyl ether”; the Solubility in water result was “insoluble in water”. Further, the pIC50 in the series on platelet aggregation was 4.77.
